Patent US20110046108A1, “PYRIMIDINE DERIVATIVES” (AstraZeneca AB, priority 2006, published 2011)
Where two headings read alike, the source gives them in different places.

How the values were obtained:
c-Src kinase = biological target: T1, c-Src kinase (Homo sapiens, UniProt P12931); experiment: Src in vitro enzyme assay (Assay C, ELISA); format: biochemical; conditions: 2.2 μM ATP
T1 construct: purchased Upstate 14-117
Procedure: The ability of test compounds to inhibit the phosphorylation of a tyrosine containing polypeptide substrate by the enzyme c-Src kinase was assessed using a conventional ELISA assay with a colorimetric endpoint.
Each well of Matrix 384-well plates (Matrix, Brooke Park, Wilmslow, Cheshire, SK9 3LP, UK, Catalogue No. 4311) were coated overnight at 4° C. with 40 μl of 10 ug/ml stock of synthetic polyamino acid pEAY substrate (Sigma-Aldrich Company Ltd, Gillingham, Dorset, SP8 4XT, UK, Catalogue No. P3899) in phosphate buffered saline (PBS). Immediately prior to the assay, the plates were washed with 100 μl/well of PBS containing Tween-20 and then with 50 mM HEPES pH7.4.
Test compounds were prepared as 10 mM stock solutions in DMSO (Sigma-Aldrich Company Ltd, Gillingham, Dorset, SP8 4XT, UK, Catalogue No.154938) and serially diluted with 10% DMSO to give a range of test concentrations at 4× the required final concentration. […]
The plates were washed three times with 100 μl/well of PBS-Tween20 and then 40 μl of a PBS-Tween20 and 0.5% BSA solution containing 4G10-HRP anti-phosphotyrosine antibody (Upstate, Catalogue No 16-105) added to each well. […] The reaction was then stopped with the addition of 20 μl/well 2M sulphuric acid and the absorbances determined at 450 nm using a plate reading spectrophotometer. […]

EphB4 = biological target: T2, EphB4 (Homo sapiens, UniProt P54760); experiment: In vitro EphB4 cell assay (Assay B, EphB4 phosphorylation ELISA in EphB4-CHO cells); format: cell-based
T2 construct: to generate full-length EphB4 containing a Myc-His tag at the C-terminus; expressed in transfected cells; host or cells: CHO-K1 (EphB4-CHO)
T2 sequence (P54760 16-987): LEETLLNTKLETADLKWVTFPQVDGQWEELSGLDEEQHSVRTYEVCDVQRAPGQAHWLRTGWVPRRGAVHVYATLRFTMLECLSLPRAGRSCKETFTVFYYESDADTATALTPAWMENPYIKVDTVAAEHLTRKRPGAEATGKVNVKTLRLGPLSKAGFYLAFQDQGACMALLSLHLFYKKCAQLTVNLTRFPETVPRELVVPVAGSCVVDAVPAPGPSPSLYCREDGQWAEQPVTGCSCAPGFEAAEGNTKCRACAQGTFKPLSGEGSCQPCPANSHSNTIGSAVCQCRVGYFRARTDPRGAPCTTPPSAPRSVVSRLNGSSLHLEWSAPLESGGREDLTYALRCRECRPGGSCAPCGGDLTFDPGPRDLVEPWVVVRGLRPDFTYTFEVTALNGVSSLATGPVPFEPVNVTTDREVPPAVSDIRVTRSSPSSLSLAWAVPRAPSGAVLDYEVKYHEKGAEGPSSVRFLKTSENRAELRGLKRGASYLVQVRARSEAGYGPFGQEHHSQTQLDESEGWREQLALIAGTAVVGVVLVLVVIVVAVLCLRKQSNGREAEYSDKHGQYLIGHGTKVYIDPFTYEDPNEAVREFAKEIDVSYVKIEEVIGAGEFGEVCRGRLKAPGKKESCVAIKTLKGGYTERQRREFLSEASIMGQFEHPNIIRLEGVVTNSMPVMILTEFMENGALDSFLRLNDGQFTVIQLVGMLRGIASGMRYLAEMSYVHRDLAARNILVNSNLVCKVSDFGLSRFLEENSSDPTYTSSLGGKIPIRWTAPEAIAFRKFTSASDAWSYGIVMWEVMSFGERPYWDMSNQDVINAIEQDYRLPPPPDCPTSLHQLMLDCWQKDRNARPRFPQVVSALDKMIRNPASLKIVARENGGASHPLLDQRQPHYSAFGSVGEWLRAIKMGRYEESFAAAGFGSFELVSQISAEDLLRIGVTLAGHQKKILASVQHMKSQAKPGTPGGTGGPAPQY

recombinant EphB4 = biological target: T3, recombinant EphB4 (Homo sapiens, UniProt P54760); experiment: In vitro EphB4 enzyme assay (Assay A, Alphascreen); format: biochemical; conditions: 4 μM ATP
T3 construct: recombinant active EphB4 (amino acids 563-987; Swiss-Prot Acc; No. P54760); purchased ProQinase GmbH 0178-0000-3
T3 sequence (P54760 563-987): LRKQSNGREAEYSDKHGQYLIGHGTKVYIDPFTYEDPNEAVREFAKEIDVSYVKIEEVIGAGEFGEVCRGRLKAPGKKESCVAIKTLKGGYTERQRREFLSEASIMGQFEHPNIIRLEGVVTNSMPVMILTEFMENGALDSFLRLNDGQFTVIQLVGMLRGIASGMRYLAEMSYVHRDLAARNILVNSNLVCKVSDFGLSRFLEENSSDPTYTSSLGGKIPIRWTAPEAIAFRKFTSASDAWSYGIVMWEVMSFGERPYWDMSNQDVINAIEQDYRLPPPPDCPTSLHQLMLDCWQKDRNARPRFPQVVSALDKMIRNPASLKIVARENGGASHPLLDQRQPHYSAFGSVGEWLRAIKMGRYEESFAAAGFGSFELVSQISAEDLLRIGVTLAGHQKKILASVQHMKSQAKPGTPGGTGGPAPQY
Procedure: This assay detects inhibitors of EphB4-mediated phosphorylation of a polypeptide substrate using Alphascreen™ luminescence detection technology. Briefly, recombinant EphB4 was incubated with a biotinylated-polypeptide substrate (biotin-poly-GAT) in presence of magnesium-ATP. The reaction was stopped by addition of EDTA, together with streptavidin-coated donor beads which bind the biotin-substrate containing any phosphorylated tyrosine residues. Anti-phosphotyrosine antibodies present on acceptor beads bind to phosphorylated substrate, thus bringing the donor & acceptor beads into close proximity. Subsequent excitation of the donor beads at 680 nm generated singlet oxygen species that interact with a chemiluminescer on the acceptor beads, leading to light emission at 520-620 nm. The signal intensity is directly proportional to the level of substrate phosphorylation and thus inhibition is measured by a decrease in signal.
Test compounds were prepared as 10 mM stock solutions in DMSO (Sigma-Aldrich Company Ltd, Gillingham, Dorset SP8 4XT Catalogue No.154938) and serially diluted with 5% DMSO to give a range of test concentrations at 6× the required final concentration. […]
The resulting assay signal was determined on the Perkin Elmer EnVision plate reader. […]

[1] = mean values, Table A, read-out: Mean IC50 (μM) obtained using Assay B

T1 sequence (P12931 whole entry): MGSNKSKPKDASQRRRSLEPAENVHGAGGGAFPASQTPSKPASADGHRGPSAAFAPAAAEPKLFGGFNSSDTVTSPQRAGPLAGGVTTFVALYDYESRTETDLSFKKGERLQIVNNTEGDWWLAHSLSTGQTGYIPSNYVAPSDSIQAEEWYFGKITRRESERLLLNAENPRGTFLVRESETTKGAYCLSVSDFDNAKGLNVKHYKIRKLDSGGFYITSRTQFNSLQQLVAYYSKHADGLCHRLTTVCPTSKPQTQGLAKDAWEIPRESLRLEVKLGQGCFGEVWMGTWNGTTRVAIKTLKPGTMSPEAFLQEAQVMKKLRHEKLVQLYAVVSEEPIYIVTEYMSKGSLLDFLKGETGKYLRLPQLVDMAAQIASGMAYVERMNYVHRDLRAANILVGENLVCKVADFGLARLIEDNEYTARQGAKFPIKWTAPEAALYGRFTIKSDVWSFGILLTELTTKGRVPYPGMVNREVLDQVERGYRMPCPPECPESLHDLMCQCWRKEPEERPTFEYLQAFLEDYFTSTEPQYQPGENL

## Clc1ccc2c(c1Nc1ccnc(Nc3ccc4ncsc4c3)n1)OCO2 [Compound 59, N~2~-1,3-benzothiazol-6-yl-N~4~-(5-chloro-1,3-benzodioxol-4-yl)pyrimidine-2,4-diamine]
c-Src kinase
  IC50: 330 nM
EphB4; ephrin-B2 stimulated EphB4 phosphorylation, read-out: IC50 in assay B
  IC50: 1.25 µM
Recombinant EphB4
  IC50: 460 nM

## CC(=O)Nc1cc(Nc2nccc(Nc3cccc4[nH]ncc34)n2)ccc1C [Compound 293, N-[5-[[4-(1H-indazol-4-ylamino)pyrimidin-2-yl]amino]-2-methyl-phcnyl] acetamide]
EphB4; [1]
  IC50: 0.23 µM

## N#Cc1cccc(Nc2nccc(N(CCO)c3c(Cl)ccc4c3OCO4)n2)c1 [Compound 241, 3-[[4-[(5-chlorobenzo [1,3]dioxol-4-yl)-(2-hydroxyethyl)amino]pyrimidin-2-yl]amino] benzonitrile]
EphB4; [1]
  IC50: 0.13 µM

## COc1cc(Nc2nccc(Nc3cccc4c3OCO4)n2)cc(OC)c1 [Compound 258, N′-benzo[1,3]dioxol-4-yl-N-(3,5-dimethoxyphenyl) pyrimidine-2,4-diamine]
EphB4; [1]
  IC50: 1.08 µM

## CS(=O)(=O)Nc1cccc(Nc2nccc(N(CC#N)c3c(Cl)ccc4c3OCO4)n2)c1 [Compound 227]
EphB4; [1]
  IC50: 0.19 µM

## CN(c1ccnc(Nc2cccc(NS(C)(=O)=O)c2)n1)c1c(Cl)ccc2c1OCO2 [Compound 219, N-[3-[[4-[(5-chlorobenzo [1,3]dioxol-4-yl)-methyl-amino]pyrimidin-2-yl]amino]phenyl]methane sulfonamide]
EphB4; [1]
  IC50: 0.14 µM
